≈ marks a conversion by molar mass, not a printed value. Like-named read-outs stand apart in the source and are kept apart here.
Assays:
[1] = Visual solubility of ibuprofen in liquid excipients; assay type: physicochemical; settings: for Ibuprofen Solubility in Excipient: visual solubility
Protocol: In this method, the excipients were accurately weighed (2.5 g) in individually-labelled 20 mL scintillation vials. […] Further, the vials were placed in a shaking water bath (Fisher Scientific, Waltham, MA, USA) maintained at 25 °C for at least 15 min to allow proper mixing.

[2] = cited from earlier work
[3] = in MCT 70 (medium chain triglycerides), 25 °C
[4] = in oleyl alcohol (Kollicream OA), 25 °C
[5] = in propylene glycol (Kollicream PG), 25 °C

CC(C)Cc1ccc(C(C)C(=O)O)cc1 (stereo not drawn) [Ibuprofen, α-methyl-4-(2-methylpropyl) benzeneacetic acid]
Ibuprofen solubility, Percentage ([1]; in Kolliphor PS 80, 25 °C): 18% | Ibuprofen Solubility in Excipient ([1]; in Kolliphor PS 80, 25 °C): 180 mg/g | Ibuprofen solubility, Percentage [1, 3]: 14% | Ibuprofen Solubility in Excipient [1, 3]: 140 mg/g | Ibuprofen solubility, Percentage ([1]; in PEG 400, 25 °C): 19% | Ibuprofen Solubility in Excipient ([1]; in PEG 400, 25 °C): 190 mg/g | Ibuprofen solubility, Percentage ([1]; in Transcutol, 25 °C): 30% | Ibuprofen Solubility in Excipient ([1]; in Transcutol, 25 °C): 300 mg/g | Ibuprofen solubility, Percentage ([1]; in glycerol, 25 °C): 0.4% | Ibuprofen Solubility in Excipient ([1]; in glycerol, 25 °C): 4 mg/g | Ibuprofen solubility, Percentage ([1]; in isopropyl myristate, 25 °C): 20% | Ibuprofen Solubility in Excipient ([1]; in isopropyl myristate, 25 °C): 200 mg/g | Ibuprofen solubility, Percentage ([1]; in mineral oil, 25 °C): 6% | Ibuprofen Solubility in Excipient ([1]; in mineral oil, 25 °C): 60 mg/g | Ibuprofen solubility, Percentage [1, 4]: 18% | Ibuprofen Solubility in Excipient [1, 4]: 180 mg/g | Ibuprofen solubility, Percentage [1, 5]: 30% | Ibuprofen Solubility in Excipient [1, 5]: 300 mg/g | aqueous solubility ([2]; pH 4.5): 0.084 µg/mL (≈ 0.407 µM) | aqueous solubility ([2]; pH 5.54): 0.685 µg/mL (≈ 3.32 µM)
